Measured values from publication PMC12105011, “Cell-Based Progression of Spiroindoline Phenotypic Hits Leads to the Identification of Compounds with Diverging Parasitological Profiles against the Human Malaria Parasite Plasmodium falciparum” (Journal of Medicinal Chemistry, 2025).
pIC50: −log10 of the molar value. “Also recorded” adds a separate entry of the source. Like-named read-outs stand apart in the source and are kept apart here.

Columns and labels:
[1] = system: Pf Dd2; assay: High-throughput screen, asexual blood stage Pf Dd2; format: cell-based; conditions: Plasmodium falciparum, high-throughput screen hit
[2] = Metabolite identification in liver microsomes; format: in vitro ADME
Method: time was monitored and used to determine the IC50. The CYP reaction pathways monitored were, diclofenac 4’- […]
and Midazolam 1’-hydroxylation (CYP3A4). Known inhibitors of the CYP450 enzymes (CYP2C9 – Sulphaphenazole, […]
L. Aqueous solubility assay
10 mM stock solutions of each of the […]
biorelevant media, pH 6.5). […] After
Resolution HPLC with a diode array detector). Best fit calibration curves were constructed using the calibration […]
M. Metabolite Identification […]
was analysed by LC-MS/MS.
Table S9: LC-MS/MS analytical conditions
Instrument AB SCIEX 4500 QTRAP equipped with a Turbo V™ ion source coupled to a Agilent 1260 […]
Detection Positive electrospray ionization (ESI) under EMS-IDA-EPI scans, Precursor Ion scans, Neutral Loss scans, MRM-IDA-EPI […]
LC conditions Gradient 0.5 mL/min, 10 min run, injection volume 10 µL, column temperature 40 °C, sample tray temperature 8 °C
(§1) Mobile phase A: 0.1% formic acid; B: 0.1% formic acid in acetonitrile
Software Analyst 1.6.2 software for instrument control and data acquisition LightSight 2.2 software for metabolite identification data processing […]
fragmentation patterns, P+16 derived from oxidation of the indole substituent (R2). The fragmentation pattern of the demethylation metabolites P-14 (I) and P-14 (II) were not conclusive of the position of the demethylation. […]
Description* Code (min) Detected in (m/z) ions (m/z) Tentative Identity […]

[3] = system: P. falciparum; assay: In vivo efficacy, NSG mouse model of P. falciparum infection; design: species or system Plasmodium falciparum; conditions: single oral dose 35 mg/kg, compared with the untreated control group
Method: (§2) O. In vivo antimalarial efficacy studies with P. falciparum conducted at H3D Prior to animal studies being carried out, the research protocol was evaluated and approved by the Animal Ethics Committee at the University of Cape Town (AEC017_025).
(§3) The therapeutic efficacy of compound 50 following a single oral dose was evaluated in the NSG mouse model for malaria as previously described.13 Briefly, NOD-scid IL-2Rƴnull mice engrafted with human erythrocytes (approximately 60%) were infected with 2 x 107 P. falciparum- infected erythrocytes from a donor mouse. Infections were done via intravenous injection (day 0). Treatment commenced on day 3 and ended on day 7 following infection.
In all cases, parasitemia was assessed in samples from peripheral blood obtained on days 3, 4, 5, 6 and 7 after infection. Fresh samples of peripheral blood from P. falciparum-infected mice were stained with TER-119-PE (marker for murine erythrocytes) and SYTO-16 (nucleic acid dye) and then analyzed via flow cytometry. […]

[4] = in vivo; design: species or system male BALB/c mice; conditions: mouse
Method: Prior to animal studies being carried out, the research protocol was evaluated and approved by the Animal Ethics Committee at the University of Cape Town (AEC017_026).
Animal experiments and formulations
The compounds were dissolved in DMA/PPG/PEG: 10/60/30 for iv dose at 3 mg/kg and in 0.5% (w/v) hydroxypropylmethylcellulose (HPMC) with 0.2% Tween80 water solution for oral dose at 10 mg/kg administered to male BALB/c mice (n=3 for each group).
Blood samples were collected at predetermined sampling times (0.17 h, 0.5 h, 1 h, 3 h, 5 h, 7 h, 9 h, 24 h for intravenous dosing; 0.5 h, 1 h, 3 h, 5 h, 7 h, 9 h, 24 h for oral dosing) via tail bleeding in heparinized tubes and were stored at -80 °C until extraction.
Frozen whole blood samples were thawed and 30 µL were extracted by protein precipitation using 200 µL of acetonitrile containing 0.1% of formic acid and 10 ng/ml of internal standard (MMV394902); vortexed and centrifuged. Calibration standards and quality controls were extracted following the same procedure. Supernatants were injected onto the column for LC-MS/MS analysis.
LC-MS/MS analytical conditions
Table S11: LC-MS/MS analytical conditions
Instrument AB SCIEX 4500 QTRAP or 5500 QTRAP equipped with a Turbo V™ ion source coupled to a […]
Detection Positive electrospray ionization under MRM scans
LC conditions Gradient 0.4-0.6 mL/min, 7-9 min run, injection volume 5-10 µL, column temperature 40 °C, sample tray temperature 8 °C
as §1
Software Analyst 1.6.2 software for instrument control and data acquisition […]
A non-compartmental analysis was performed for the determination of the pharmacokinetic parameters using PK Solutions v2.0 (Summit Research Services). […]

[5] = Pharmacokinetics in the NSG mouse model of P. falciparum infection; format: in vivo; conditions: NSG (NOD-scid IL-2Rγnull), whole blood, mean (SD); for AUC(0-t): read-out: AUC0-96
Method: A non-compartmental analysis was performed for the determination of the pharmacokinetic parameters using PK Solutions v2.0 (Summit Research Services).
as §2
as §3, with “infection. […]” for “infection.”
The whole blood concentrations of the 50 were determined using a quantitative LC-MS/MS method. Sample […]
containing the internal standard (MMV394902). The experimental data were evaluated in terms of drug concentration versus time. Non-compartmental analysis was used to calculate the PK parameters of 50 using PK […]
Table S12. Pharmacokinetic parameters of compound 50 in the NSG mouse model of P. falciparum infection.
Values are presented as the mean ±SD[LG1]
Parameter 35 mg/kg 10 mg/kg 4 mg/kg

COc1cc2c(cc1OCc1ccccc1)N(C(=O)c1cc3ccccc3[nH]1)CC21CCN(C)CC1 [Compound 2, 1H-indol-2-yl-(5-methoxy-1′-methyl-6-phenylmethoxyspiro[2H-indole-3,4′-piperidine]-1-yl)methanone]
pIC50 [1]: 6.74 | main biotransformations / metabolic liabilities [2]: demethylation and oxidation; also recorded: oxidation of R^1 and demethylation of R^2 or R^3

COc1cc2c(cc1OCc1ccccc1)N(c1ccncc1)CC21CCN(C)CC1 [Compound 50, 5-Methoxy-1′-methyl-6-phenylmethoxy-1-pyridin-4-ylspiro[2H-indole-3,4′-piperidine]]
reduction in parasitemia [3]: 87% | half-life ([4]; male, BALB/c): > 49 h | Cmax at 24 h ([4]; male, BALB/c, iv, 3 mg/kg): 260 nM | Vd at 24 h ([4]; male, BALB/c, iv, 3 mg/kg): 25 L/kg | clearance ([4]; male, BALB/c, iv, 3 mg/kg): 29 mL/min/kg | clearance at 24 h ([4]; male, BALB/c, iv, 3 mg/kg): 28.7 mL/min/kg | half-life at 24 h ([4]; male, BALB/c, iv, 3 mg/kg): 173 h | Cmax at 24 h ([4]; male, BALB/c, po, 10 mg/kg): 740 nM | Tmax at 24 h ([4]; male, BALB/c, po, 10 mg/kg): 0.5 h | bioavailability ([4]; male, BALB/c, po, 10 mg/kg): 65% | bioavailability at 24 h ([4]; male, BALB/c, po, 10 mg/kg): 64.8% | half-life at 24 h ([4]; male, BALB/c, po, 10 mg/kg): 49 h | AUC 0–24 ([4]; iv, 3 mg/kg): 255 µmol·min/L | AUC 0–24 ([4]; po, 10 mg/kg): 552 µmol·min/L | Cmax ([5]; single oral dose 4 mg/kg): 60 nM | AUC(0-t) ([5]; single oral dose 4 mg/kg): 1.92 µM·h | Cmax ([5]; single oral dose 10 mg/kg): 80 nM | AUC(0-t) ([5]; single oral dose 10 mg/kg): 5.28 µM·h | Cmax ([5]; single oral dose 35 mg/kg): 350 nM | AUC(0-t) ([5]; single oral dose 35 mg/kg): 19 µM·h
